Reference: PubChem BioAssay AID720662 (NMMLSC, 2013)
Activity calls are given as the source filed them.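 The calls were made as follows: active = inhibition of esterase secretion above 50%; inactive = inhibition of esterase secretion below 50%.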

System: TALL-104 cells, BLT esterase secretion, DTNB absorbance
Experiment: blockers of BLT esterase secretion from TALL-104 – TALL-104 cells, BLT/DTNB absorbance, CherryPick01, confirmation (AID 720662)
Conditions: active compounds read high; dose or concentration not given here

SMILES | inhibition
COc1cccc(NC(=O)Nc2nc(-c3ccc(OC)c(OC)c3)cs2)c1 | 96%
Fc1ccc(/C=C\c2nccc3c2[nH]c2ccccc23)cc1 | 86%
CCCCC[C@@H](C)N1C[C@H](COCc2ccccc2)Oc2cc(N3CC[C@@H](N(C)C)C3)ccc2S1(=O)=O | 64%
CCOc1ccccc1CNC(=O)C1CCN(c2nnc(C)c3c(C)n(-c4ccc(C)cc4)nc23)CC1 | 94%
CCOC(=O)c1nnc(-c2ccccc2)nc1Sc1ccccc1Cl | -8% (inactive)
CN(C)CCCNC(=S)NCC(c1ccc(Cl)cc1Cl)c1c[nH]c2ccccc12 (stereo not given) | -3% (inactive)
Nc1c(C(=O)NCc2ccc(F)cc2)c2nc3ccccc3nc2n1CCCN1CCOCC1 | 15% (inactive)
Cc1ccc(S(=O)(=O)n2ccc3c(OCCOCCNCc4ccc(F)cc4)cccc32)cc1 | 67%
CCc1nc2ccc(C(=O)NC3CCN(Cc4ccccc4)CC3)cn2c1N(C)Cc1cc2ccccc2s1 | -4% (inactive)
COc1ccc(-c2cc(NC=O)c3ncc(-c4cccc(OC)c4)n3c2)cc1 | 77%
COc1cc(-c2coc3c(C(=O)NCc4ccc(OC)c(OC)c4)cccc23)ccc1O | 20% (inactive)
CN(C)CCNC(=O)c1ccc(-c2cn3c(-c4ccc(Oc5ccccc5)cc4)cnc3cn2)cc1 | 14% (inactive)
O=c1c2ccc(F)cc2sn1-c1ccccc1 | 61%
CC1=NOC(=O)/C1=C/c1ccc(-c2ccc(Cl)cc2)o1 | 73%
CCc1ccc2nc(N(CCCN(C)C)C(=O)c3ccc(S(=O)(=O)N4CCc5ccccc5C4)cc3)sc2c1 | 67%
O=C(Nc1ccc(F)cc1)c1nc(S(=O)(=O)Cc2ccccc2)ncc1Cl | 97%
Cn1sc(=O)c2cc(S(=O)(=O)NC3CC3)ccc21 | 63%
CC1(C(=O)OCC(=O)Nc2nc(-c3ccc(F)c(F)c3)cs2)CC1(Cl)Cl (stereo not given) | -8% (inactive)
CCOc1ccc2nc(N(CCCN(C)C)C(=O)c3ccc(S(=O)(=O)N4CCc5ccccc5C4)cc3)sc2c1 | 91%
COC(=O)c1c(NC(=O)c2nc3ccccc3s2)sc2c1CC(C)(C)NC2(C)C | 51%
CC(=O)Nc1ccc2sn(-c3ccccc3)c(=O)c2c1 | 20% (inactive)
CC(=O)Nc1ccc2c(=O)n(-c3ccccc3)sc2c1 | 25% (inactive)
CCOC(=O)c1c(CSc2ccccc2)n(C)c2cc(Br)c(O)c(CN(C)C)c12 | 25% (inactive)
CCCNC(=O)Cn1sc2nc(C)cc(C)c2c1=O | 38% (inactive)
Cc1ccc(Nc2nc(NCc3ccco3)c3ccccc3n2)cc1 | 12% (inactive)

SMILES | inhibition
O=C(OCc1ccccc1)N(CCCCN(CCCNCc1ccccc1)C(=O)OCc1ccccc1)CCCNCc1ccccc1 | 88%
CC(C)(c1ccccc1)c1ccc(OCC(O)CNC2CCN(Cc3ccccc3)CC2)cc1 (stereo not given) | 83%
O=c1c2ccccc2sn1-c1ccccc1 | 68%
CC1COCC(C)N1C1=C(Cl)C(=O)c2ccccc2C1=O (stereo not given) | 97%
CCCS(=O)(=O)Nc1ccc(Nc2c3ccccc3nc3ccccc23)c(OC)c1 | 81%
COC(=O)c1c(NC(=O)c2ccc(C(=O)c3ccccc3)cc2)sc2c1CC(C)(C)NC2(C)C | 5% (inactive)
O=C(Cn1sc2ccccc2c1=O)Nc1ccc(F)cc1 | 38% (inactive)
COc1ccc(-c2cc(NC=O)c3ncc(-c4ccccc4)n3c2)cc1OC | 63%
CCN(CC)CCCNc1ccc(-c2nnc(-c3ccc(OCC(C)C)cc3)o2)cn1 | 52%
CN1CCN(CCCNC(=O)c2ccc(/C=C3\Sc4ccccc4N(Cc4ccc(F)cc4)C3=O)cc2)CC1 | -12% (inactive)
CCCCC[C@@H](C)N1C[C@@H](COCc2ccccc2)Oc2cc(N3CC[C@@H](N(C)C)C3)ccc2S1(=O)=O | 76%
CCOC(=O)c1cc(-c2csc(Nc3c(C)cc(C)cc3C)n2)on1 | 68%
COc1ccc([N+](=O)[O-])cc1Nc1c2ccccc2nc2ccccc12 | 10% (inactive)
COc1ccccc1CNc1nc(NCc2ccc(C(C)C)cc2)c2sccc2n1 | 54%
c1ccc(CNc2nc(NCC3CC3)nc3cc(-c4ccccc4)sc23)cc1 | 86%
COc1cccc(-c2cnc3c(NC(C)=O)cc(-c4ccsc4)cn23)c1 | 64%
Cn1cncc1C#Cc1c(-c2ccc(S(C)(=O)=O)cc2)sc2ccccc12 | 13% (inactive)
O=C(Cn1sc2ccccc2c1=O)NC12CC3CC(CC(C3)C1)C2 | 33% (inactive)
CCCCCCSc1cccc(-c2nc3ccccn3c2NCc2ccccc2)c1 | 7% (inactive)
O=C(CN1C(=O)/C(=C\c2cccc(Br)c2)Oc2ccccc21)NCCCN1CCOCC1 | 24% (inactive)
N#Cc1c(Nc2ccccc2Cl)s[nH]c1=O | 92%
CCOc1ccc2nc(C)cc(Nc3cccc([N+](=O)[O-])c3)c2c1 | 95%
CC1=C(C)CS(=O)N(S(=O)(=O)c2ccc(Cl)cc2)C1 (stereo not given) | 99%
COc1cccc(-c2cnc3c(NC=O)cc(-c4ccccc4)cn23)c1 | 43% (inactive)
CCOc1cc(CNCCc2ccc(S(N)(=O)=O)cc2)ccc1OCc1ccc(Cl)cc1 | 90%

SMILES | inhibition
O=S(=O)(c1ccccc1)c1nnn2c1nc(NC1CCN(Cc3ccccc3)CC1)c1cc(Cl)ccc12 | 88%
CN1CCN(c2cc(-c3ccccc3)nc3cc(-c4ccc(F)cc4)nn23)CC1 | 79%
CN(c1ccccc1)S(=O)(=O)c1cccc(C(=O)NCCc2c[nH]c3ccccc23)c1 | 23% (inactive)
CC(C)CNC(=O)c1c(N)n(Cc2ccc3c(c2)OCO3)c2nc3ccccc3nc12 | 3% (inactive)
O=C1C=CC(=O)N1N(c1ccccc1)c1ccccc1 | 27% (inactive)
Cc1cc(N2CCN(c3nc(-c4ccc([N+](=O)[O-])cc4)cs3)CC2)c2ccccc2n1 | 80%
COc1cccc(-c2cnc3c(NC(C)=O)cc(-c4ccccc4OC)cn23)c1 | 68%
O=CNc1cc(-c2ccsc2)cn2c(-c3ccccc3)cnc12 | 41% (inactive)
O=C1CC(Sc2nnnn2-c2ccccc2)C(=O)N1c1cccc(Cl)c1 (stereo not given) | 72%
OC(CNCC(c1ccc(Cl)cc1Cl)c1c[nH]c2ccccc12)c1ccccc1 (stereo not given) | 2% (inactive)
CCOC(=O)c1c(NC(=O)COc2ccccc2OCC)sc2c1CC(C)(C)NC2(C)C | 55%
COc1ccccc1CNc1nc(NCc2ccc3occc3c2)c2sccc2n1 | 22% (inactive)
Cc1cc(C)c2nc(C)cc(N/N=C/c3ccc(O)cc3)c2c1 | 88%
CCCCC[C@@H](C)N1C[C@@H](COCc2ccccc2)Oc2cc(N3CC[C@H](N(C)C)C3)ccc2S1(=O)=O | 74%
O=C1Nc2ccc(Br)cc2/C1=C/C(=O)c1ccccc1 | 3% (inactive)
CCOc1ccc2[nH]c3c(N4CCc5ccccc5C4)ncnc3c2c1 | -5% (inactive)
COc1ccc(-n2sc3ccccc3c2=O)cc1 | 45% (inactive)
CCc1ccc(/C=C2/Sc3ccccc3N(CC(=O)NCCCN3CCOCC3)C2=O)cc1 | 14% (inactive)
CCC(=C(c1ccc(OC)cc1)c1ccc(OC)cc1)c1cn(CC(O)CN2CCN(C)CC2)c2ccccc12 (stereo not given) | 1% (inactive)
N#Cc1ccc(NC(=O)Nc2ccc(Oc3ccc(NC(=O)Nc4ccc(C#N)cc4)cc3)cc2)cc1 | 36% (inactive)
COC(=O)[C@]12CCCCC=C1N(Cc1cccc3ccccc13)C(=O)[C@H](CC(=O)NCc1ccc(OC)c(OC)c1)C2 | 14% (inactive)
COc1ccc(N2C(=O)CC(Sc3nnc(-c4ccccc4)o3)C2=O)cc1 (stereo not given) | 89%
O=c1c2ccccc2sn1-c1ccccc1F | 38% (inactive)
Cc1ccc(-n2nnc3c(=O)oc4ccccc4c32)cc1 | 94%
CCCCn1c(=N)n(CC(=O)c2ccc(Br)s2)c2ccccc21 | 91%
